Measured values as given in ChEMBL document CHEMBL3885881, “DrugMatrix”.

Organism: Rattus norvegicus
Assay: DrugMatrix - Regimen: Daily Repeat
Format: toxicity, organism-based, Sprague-Dawley
Design: regimen Daily Repeat, gender Male, age 6-8 weeks
Details: in vivo, po, route oral GAVAGE, vehicle 100 % WATER; for ABSOLUTE BASOPHIL / ABSOLUTE EOSINOPHIL / ABSOLUTE LYMPHOCYTE / ABSOLUTE MONOCYTE / ABSOLUTE SEGMENTED NEUTROPHIL / BASOPHIL / EOSINOPHIL / ERYTHROCYTE COUNT / HEMATOCRIT / HEMOGLOBIN / LEUKOCYTE COUNT / LYMPHOCYTE / MEAN CORPUSCULAR HEMOGLOBIN / MEAN CORPUSCULAR HEMOGLOBIN CONCENTRATION / MEAN CORPUSCULAR VOLUME / MONOCYTE / NEUTROPHIL / NUCLEATED RED BLOOD CELLS / PLATELET COUNT: tissue Blood; for ALANINE AMINOTRANSFERASE / ALBUMIN / ALKALINE PHOSPHATASE / ASPARTATE AMINOTRANSFERASE / BLOOD UREA NITROGEN / CARBON DIOXIDE / CHLORIDE / CHOLESTEROL / CREATINE PHOSPHOKINASE / CREATININE / GLUCOSE / LACTATE DEHYDROGENASE / LIPASE / PHOSPHORUS / POTASSIUM / SODIUM / TOTAL BILIRUBIN / TOTAL PROTEIN / URIC ACID: tissue Plasma
[1] = 8 mg/kg, 120 h, dose level Low, time 5 day
[2] = 100 mg/kg, 72 h, dose level High, time 3 day
[3] = 100 mg/kg, 120 h, dose level High, time 5 day

## CCN(C(C)=O)c1cccc(-c2ccnc3c(C#N)cnn23)c1 [ZALEPLON]
[1]
  ABSOLUTE BASOPHIL: 0 CELLS/uL
  ABSOLUTE EOSINOPHIL: 56.67 CELLS/uL
  ABSOLUTE LYMPHOCYTE: 12514.33 CELLS/uL
  ABSOLUTE MONOCYTE: 39.33 CELLS/uL
  ABSOLUTE SEGMENTED NEUTROPHIL: 1223 CELLS/uL
  BASOPHIL: 0%
  EOSINOPHIL: 0.33%
  ERYTHROCYTE COUNT: 5.65 x10E6/uL
  HEMATOCRIT: 36.27%
  HEMOGLOBIN: 14.43 G/DL
  LEUKOCYTE COUNT: 13.83 x10E3/uL
  LYMPHOCYTE: 90.67%
  MEAN CORPUSCULAR HEMOGLOBIN: 25.57 pg
  MEAN CORPUSCULAR HEMOGLOBIN CONCENTRATION: 39.8 G/DL
  MEAN CORPUSCULAR VOLUME: 64.17 fL
  MONOCYTE: 0.33%
  NEUTROPHIL: 8.67%
  NUCLEATED RED BLOOD CELLS: 0.33 /100WBC
  PLATELET COUNT: 1230.33 x10E3/uL
  ALANINE AMINOTRANSFERASE: 55.33 u/L
  ALBUMIN: 4.17 G/DL
  ALKALINE PHOSPHATASE: 388.67 u/L
  ASPARTATE AMINOTRANSFERASE: 80.67 u/L
  BLOOD UREA NITROGEN: 14.33 mg/dL
  CARBON DIOXIDE: 31.67 mmol/L
  CHLORIDE: 101.67 MEQ/L
  CHOLESTEROL: 66.33 mg/dL
  CREATINE PHOSPHOKINASE: 267.33 u/L
  CREATININE: 0.15 mg/dL
  GLUCOSE: 126.67 mg/dL
  LACTATE DEHYDROGENASE: 359 u/L
  LIPASE: 11.33 u/L
  PHOSPHORUS: 11.67 mg/dL
  POTASSIUM: 6.04 MEQ/L
  SODIUM: 144.43 MEQ/L
  TOTAL BILIRUBIN: 0.17 mg/dL
  TOTAL PROTEIN: 6 G/DL
  URIC ACID: 1.4 mg/dL
[2]
  ABSOLUTE BASOPHIL: 0 CELLS/uL
  ABSOLUTE EOSINOPHIL: 0 CELLS/uL
  ABSOLUTE LYMPHOCYTE: 12984 CELLS/uL
  ABSOLUTE MONOCYTE: 96.67 CELLS/uL
  ABSOLUTE SEGMENTED NEUTROPHIL: 1352.67 CELLS/uL
  BASOPHIL: 0%
  EOSINOPHIL: 0%
  ERYTHROCYTE COUNT: 5.72 x10E6/uL
  HEMATOCRIT: 36.9%
  HEMOGLOBIN: 14 G/DL
  LEUKOCYTE COUNT: 14.43 x10E3/uL
  LYMPHOCYTE: 90%
  MEAN CORPUSCULAR HEMOGLOBIN: 24.5 pg
  MEAN CORPUSCULAR HEMOGLOBIN CONCENTRATION: 37.97 G/DL
  MEAN CORPUSCULAR VOLUME: 64.5 fL
  MONOCYTE: 0.67%
  NEUTROPHIL: 9.33%
  NUCLEATED RED BLOOD CELLS: 0 /100WBC
  PLATELET COUNT: 1335.67 x10E3/uL
  ALANINE AMINOTRANSFERASE: 82.33 u/L
  ALBUMIN: 4.13 G/DL
  ALKALINE PHOSPHATASE: 449.67 u/L
  ASPARTATE AMINOTRANSFERASE: 80 u/L
  BLOOD UREA NITROGEN: 11.67 mg/dL
  CARBON DIOXIDE: 33.33 mmol/L
  CHLORIDE: 106 MEQ/L
  CHOLESTEROL: 71 mg/dL
  CREATINE PHOSPHOKINASE: 245.67 u/L
  CREATININE: 0.2 mg/dL
  GLUCOSE: 139 mg/dL
  LACTATE DEHYDROGENASE: 132.33 u/L
  LIPASE: 10 u/L
  PHOSPHORUS: 11.2 mg/dL
  POTASSIUM: 5.9 MEQ/L
  SODIUM: 144.73 MEQ/L
  TOTAL BILIRUBIN: 0.17 mg/dL
  TOTAL PROTEIN: 5.93 G/DL
  URIC ACID: 1.4 mg/dL
[3]
  ABSOLUTE BASOPHIL: 0 CELLS/uL
  ABSOLUTE EOSINOPHIL: 0 CELLS/uL
  ABSOLUTE LYMPHOCYTE: 12362.67 CELLS/uL
  ABSOLUTE MONOCYTE: 101.33 CELLS/uL
  ABSOLUTE SEGMENTED NEUTROPHIL: 1236 CELLS/uL
  BASOPHIL: 0%
  EOSINOPHIL: 0%
  ERYTHROCYTE COUNT: 6.29 x10E6/uL
  HEMATOCRIT: 38.53%
  HEMOGLOBIN: 15 G/DL
  LEUKOCYTE COUNT: 13.7 x10E3/uL
  LYMPHOCYTE: 89.33%
  MEAN CORPUSCULAR HEMOGLOBIN: 23.83 pg
  MEAN CORPUSCULAR HEMOGLOBIN CONCENTRATION: 38.93 G/DL
  MEAN CORPUSCULAR VOLUME: 61.3 fL
  MONOCYTE: 0.67%
  NEUTROPHIL: 10%
  NUCLEATED RED BLOOD CELLS: 0 /100WBC
  PLATELET COUNT: 1219.33 x10E3/uL
  ALANINE AMINOTRANSFERASE: 61.67 u/L
  ALBUMIN: 4.3 G/DL
  ALKALINE PHOSPHATASE: 331.33 u/L
  ASPARTATE AMINOTRANSFERASE: 91 u/L
  BLOOD UREA NITROGEN: 14.67 mg/dL
  CARBON DIOXIDE: 28.67 mmol/L
  CHLORIDE: 102 MEQ/L
  CHOLESTEROL: 83.33 mg/dL
  CREATINE PHOSPHOKINASE: 520 u/L
  CREATININE: 0.17 mg/dL
  GLUCOSE: 157 mg/dL
  LACTATE DEHYDROGENASE: 238.67 u/L
  LIPASE: 11 u/L
  PHOSPHORUS: 11.7 mg/dL
  POTASSIUM: 6.45 MEQ/L
  SODIUM: 144.67 MEQ/L
  TOTAL BILIRUBIN: 0.2 mg/dL
  TOTAL PROTEIN: 6.53 G/DL
  URIC ACID: 2.47 mg/dL
